We go through 3 molecules from patent US7731941B2, “Staining composition for staining an ophthalmic membrane” (priority 2004, dated 2010).

Values joined by “and” are separate entries in the source; they are usually repeats but may differ in a detail not shown here. Identical values can stand only once. “Also recorded” adds a separate entry of the source. Like-named read-outs stand apart in the source and are kept apart here.

The subject of one series is corneal cells. As to the kind of experiment: Anterior chamber injection of dyes in rats: transmission electron microscopy. As to conditions: single anterior chamber injection; BBG 10 mg/ml, ICG 5 mg/ml, TB 1 mg/ml.
Series [1] deals with anterior capsule. As to conditions: stated for comparison, no test described; cited from earlier work.
The next series has as its system cornea. As to the kind of experiment: Anterior chamber injection of dyes in rats: light microscopy (HE). It is filed as in vivo, Brown Norway rats. As to conditions: single anterior chamber injection; BBG 0.01-10 mg/ml, ICG 5 mg/ml, TB 1 mg/ml; 2 weeks and 2 months. From the text: The eyes were fixed in 4% paraformaldehyde and cut in half, embedded in paraffin, deparaffinized in xylene, rehydrated in ethanol, and washed in phosphate-buffered saline (PBS). The 4 μm thick sections were stained by hematoxylin and eosin, and observed by light microscope.

For another series, the system named is corneal endothelium. The conditions noted are these: single anterior chamber injection; for apoptotic cell death (TUNEL) in corneal stromal cells, endothelium, ciliary body and lens cells: BBG 0.01-10 mg/ml, ICG 5 mg/ml.
The test system of series [2] is retina. As to conditions: rat, in vivo.
Experimental: Brown Norway rats (n=78 males, 8 weeks old, Kyudo, Fukuoka, Japan) were anesthetized with an intraperitoneal injection of ketamine hydrochloride at a dose of 75 mg/kg body weight. One eye from each animal (total of n=6 per dose group) was vitrectomized using 0.05 ml of pure SF6 gas as described previously. Following the gas injection, 0.05 ml of BBG solution was injected into the vitreous cavity of each vitrectomized eye using a microscope for enhanced magnification during surgery. […] Twenty-four sham-operated eyes (injected with SF6 followed by 0.05 ml of intraocular irrigating solution) were used as controls.
The eyes were enucleated on day 14 and at 2 months post-operation and fixed in 1% glutaraldehyde and 1% paraformaldehyde in PBS. The specimens were postfixed in veronal acetate buffer osmium tetroxide (2%), dehydrated in ethanol and water, and embedded in Epon. Ultrathin sections were cut from blocks and mounted on copper grids.
Series [3] relates to ILM.
Series [4] deals with ILM. The source holds these as a separate data set.
Experimental: Since ILM peeling is impossible in rat eyes, the inventors examined the ability of BBG to stain the ILM in primate eyes. Two eyes from two cynomolgus monkeys at 3 years of age were used in this study. The animals were restrained in a squeeze cage and injected intramuscularly in the thigh with 20 mg/kg of ketamine hydrochloride (Sankyo Yell Pharmaceutical Products Co. Ltd., Japan) for general anesthesia. The monkeys were subsequently transported to an operating room. Surgery consisted of a standard three port pars plana vitrectomy with induction of a posterior vitreous detachment by suction with a vitrectomy cutter using triamcinolone acetonide injection for vitreous visualization.
Ten milligrams of BBG were dissolved in 20 ml of intraocular irrigating solution and sterilized with a syringe filter. The final concentration of BBG was 0.5 mg/ml. The prepared BBG solution (0.5 ml) was then injected gently into the vitreous cavity and washed out immediately with balanced salt solution (BSS Plus (Registered trademark), Santen, Osaka, Japan). Removal of the ILM was performed using ILM forceps.
Series [5] has as its system retina.
The subject of series [6] is ILM. As to the kind of experiment: BBG in ILM staining, effects and safety in human eyes (first attempt, 16 eyes). It is filed as in vivo. How it is done:
Sixteen eyes of 16 patients with a macular hole (MH) and epiretinal membranes (ERMS) were recruited from the outpatient unit of Kyushu University Hospital (Fukuoka, Japan) between August and September 2004. Patients with ocular diseases such as glaucoma, uveitis, and corneal disorder were excluded. This study was carried out with the approval from the appropriate institutional Ethics Committee and was performed in accordance with the ethical standards laid down in the 1989 Declaration of Helsinki. The possible advantages and risks of the present treatment were explained to the patients before surgery and informed consent was obtained from all patients. […] The final concentration of BBG was 0.25 mg/ml. […] Removal of the ILM was performed using ILM forceps (D.O.R.C.; Dutch Ophthalmic Research Center International b.v., Netherlands).
Postoperative examinations included slitlamp microscopy, opthalmoscopy, best corrected visual acuity (BCVA) and intraocular pressure. The visual field was evaluated with Humphrey Field Analyzer II (Humphrey Systems, Dublin, Calif., USA) after 2 months.

Series [7] concerns anterior capsule. As to the kind of experiment: BBG-assisted continuous curvilinear capsulorhexis in a human eye. It is filed as in vivo. How it is done: A person with a white mature cataract underwent BBG-assisted CCC and phacoemulsification with intraocular lens (IOL) implantation in August 2004. The patient had no other ocular diseases, such as glaucoma, uveitis or corneal disorders. Coomassie® BBG 250 (Sigma-Aldrich, St. Louis, USA) was dissolved in intraocular irrigating solution (OPEGUARD®-MA; Senjyu Pharmaceutical Co., Ltd., Osaka, Japan) at a dose of 0.25 mg/ml and sterilized with a syringe filter. The BBG solution was gently injected into the anterior chamber and then washed out immediately with balanced salt solution (BSS).

The test system of series [8] is retina. As to conditions: rat, in vivo. This is another data set of the same source.
Series [9] is described as follows: Osmolarity and pH of the BBG solution. It is filed as physicochemical.
Series [10] has as its system anterior capsule. As to the kind of experiment: Capsular staining ability of BBG in pig eyes. How it is done: The capsular staining ability of BBG was assessed in pig eyes using graded concentrations of the dye.
The pig eyes were obtained from a local slaughterhouse and transported to the laboratory on ice. The extraocular muscles and other connective tissues were carefully cut off and the eyes were placed on the operation chamber. The BBG solution was prepared using the following method. Twenty milligrams of BBG (Coomassie. brilliant blue G 250; Signa-Aldrich, St. Louis, USA) were dissolved in 10 ml of intraocular irrigating solution (OPEGUARD.-MA, Senjyu Pharmaceutical Co., Ltd., Osaka, Japan) and sterilized with a syringe filter (Minisart. Sartorius AG, Goettingen, Germany). Under the operation microscope, the capsular staining by BBG was examined as follows. […] The anterior chamber was immediately irrigated by enhanced balanced salt solution (BSS Plus®, Santen Pharmaceuticals, Japan) and the excessive dye was easily washed out.
To deepen the anterior chamber, 1% sodium hyaluronate (Healon®, Pharmacia, Uppsala, Sweden) was injected. A CCC was initiated by preparing a small triangular anterior capsular flap with a bent 26-gauge disposable needle mounted on a viscoelastic syringe. The CCC was completed using a cystotome or capsulorhexis forceps.

The mark [11] stands for this setting: 0.25 mg/ml, 0.5 ml intravitreal, washed out immediately.
Setting [12] is: individual patient case, BBG 0.25 mg/ml.
[13] abbreviates: BBG 10 mg/ml in intraocular irrigating solution (OPEGUARD-MA).

Experimental for corneal cells: Brown Norway rats (Kyudo, Fukuoka, Japan), postnatal 8 weeks, were studied as follows. The rats were anesthetized with an intraperitoneal injection of pentobarbital and their pupils were dilated with topical 1% tropicamide and 2.5% phenylephrine hydrochloride. The anterior chamber was entered through the clear cornea with a 30-gauge needle mounted on a syringe. Then a single anterior chamber injection was performed with each dye, BBG (10, 1, 0.5, 0.25, 0.1 and 0.01 mg/ml), ICG (5 mg/ml), trypan blue (1 mg/ml), and the control OPEGUARD. solution (n=6 for each dye, total 54 eyes).
The dye remained in the anterior chamber and was followed by biomicroscopic examination for 2 months. The eyes were enucleated at 2 weeks and 2 months after operation. The eyes were analyzed by light microscopy, transmission and scanning electron microscopy.
The eyes were enucleated and the anterior segments were fixed in 1% glutaraldehyde and 1% paraformaldehyde in PBS. The specimens were postfixed in veronal acetate buffer osmium tetroxide (2%), dehydrated in ethanol and water, and embedded in Epon. Ultrathin sections were cut from blocks and mounted on copper grids.

For `CC1(C)C(/C=C/C=C/C=C/C=C2\N(CCCCS(=O)(=O)O)c3ccc4ccccc4c3C2(C)C)=[N+](CCCCS(=O)(=O)[O-])c2ccc3ccccc3c21` [ICG, Indocyanine green], the “ultrastructure of corneal cells and endothelium (TEM)” value with corneal cells is listed as “some endothelial cells demonstrated signs of mitochondrial swelling”. In addition, the “concentration required for staining of the anterior capsule (comparison dyes)” value in the series with anterior capsule [1] is 5 mg/mL. The “changes in hematoxilin and eosin stained sections of the cornea” value in the series with cornea is on record as “no remarkable changes”. In the series on corneal endothelium, the “apoptotic cell death (TUNEL) in corneal stromal cells, endothelium, ciliary body and lens cells” value is reported as “no apparent apoptotic cell death was detected”.
For `Cc1cc(-c2ccc(/N=N/c3c(S(=O)(=O)O)cc4cc(S(=O)(=O)O)cc(N)c4c3O)c(C)c2)ccc1/N=N/c1c(S(=O)(=O)O)cc2cc(S(=O)(=O)O)cc(N)c2c1O` [TB, Trypan Blue], the “concentration required for staining of the anterior capsule (comparison dyes)” value in the series on anterior capsule [1] is 1 mg/mL. For the same molecule, in the series on corneal endothelium (TB 1 mg/ml), the “apoptotic cell death of corneal endothelium, share of the total endothelial cells” value is given as 2%.
In the case of `CCOc1ccc(Nc2ccc(/C(=C3C=C/C(=[N+](/CC)Cc4cccc(S(=O)(=O)[O-])c4)C=C/3C)c3ccc(N(CC)Cc4cccc(S(=O)(=O)[O-])c4)cc3C)cc2)cc1.[Na+]` [BBG, Brilliant Blue G], in the series with retina [2], the “changes in inner nuclear, outer nuclear and retinal pigment epithelial cell layers (TEM)” value is listed as “no remarkable changes were observed”. Moreover, the “staining of the ERM in ERM cases” value with ILM [3] (0.25 mg/ml) was “could not be confirmed”. The “ILM staining in MH cases” value in the series on ILM [3] (setting [11]) was “stained a bright blue color instantly”. Further, the “staining of the ILM of the area where the ERM had been removed” value in the series on ILM [3] (0.25 mg/ml, second injection after ERM peeling) is on record as “well stained”. Also, in the series with ILM [3] (20 eyes), the “removal of the ILM including the ERM during surgery” value is recorded as “removed from all 20 eyes successfully”. For the same molecule, the “patients with improvement of 2 or more lines on the Snellen chart” value in the series on ILM [3] (ERM cases, eight of 10 patients) is listed as 80%. The “mean foveal thickness of retina measured with OCT, postoperative” value in the series on ILM [3] (ERM cases, preoperative 454.7±141.3 μm) came out at 249.4±71.3 μm. For the same molecule, the “postoperative median BCVA” value with ILM [3] (ERM cases, preoperative median 20/50) is 20/32. Further, the “eyes with visual acuity improved by 2 or more Snellen lines” value in the series with ILM [3] (MH cases, 9 of 10 eyes) worked out at 90%. Besides, in the series with ILM [3] (MH cases, preoperative median 20/100), the “postoperative median BCVA” value is 20/32. Further, the “closure of MH (ophthalmoscopy and OCT)” value with ILM [3] (all 10 MH cases) is reported as “completely closed anatomically”. For the same molecule, in the series with ILM [3] (in vivo), the “complication: protraction of vitreous hemorrhage” value is “one case”, the “complications: iatrogenic peripheral retinal breaks” value is given as “two cases”, the “elevation of IOP” value was found to be 26 mmHg and the “other adverse effects such as retinal pigment epithelium (RPE) atrophy” value was “No other adverse effects”. Also, in the series with ILM [3] (individual MH case), the “Postop. Retinal status” value is recorded as “MH closed”. Also, the ILM staining entry in the series with ILM [4] (0.5 mg/ml, 0.5 ml into vitreous cavity, washed out immediately) was “stained a light blue color”. Further, the “concentration of BBG required to stain the ILM of primates in comparison with ICG” value in the series on ILM [4] (ratio to ICG concentration) is “about 1/10”. Also, in the series with retina [5] (all BBG dose groups, after 2 months), the “apoptotic cell death of retinal cells” value is recorded as “had not undergone apoptotic cell death”. In addition, in the series with retina [5] (intravitreal 10 mg/ml, day 14), the “apoptotic cell death in retina (TUNEL)” value is on record as “one case of apoptotic cell death was observed from among ten sections” and the “apoptotic cell ratio compared with control sections” value was “not significantly different”. In the series with retina [5] (intravitreal lower doses, day 14), the “TUNEL staining in the retina” value is on record as “no TUNEL staining was observed”. Further, in the series with ILM [6] (0.25 mg/ml), the “staining of the ERMS” value was “could not be confirmed”. Further, the ILM staining result in the series with ILM [6] (setting [11]) is “stained a light blue color”. The “elevation of intraocular pressure” value in the series with ILM [6] (16 eyes, BBG 0.25 mg/ml) is given as “None of the patients had an elevation of intraocular pressure”. For the same molecule, the visual acuity result with ILM [6] (16 eyes, MH and ERM, BBG 0.25 mg/ml assisted peeling) is reported as “recovered in all cases”. Further, in the series on ILM [6] (setting [12]), the “Postop. Retinal status” value is recorded as “MH closed; also recorded: Fold (−); also recorded: Macular”; the complications entry is “Peripheral (2×) and none (13×) and Vitreous”. Also, the “Postop. BCVA” value in the series on ILM [6] (individual patient case, BBG 0.25 mg/ml, follow up 2-4 months) is 20/50 (2×) and 20/63 (2×) and 20/25 (2×) and 20/32 (4×) and 20/40 (3×) and 20/16 and 20/20. Further, the “other adverse effects due to BBG” value in the series with ILM [6] (within the observation period) is on record as “No other adverse effects”. For the same molecule, the “visibility of the anterior capsule during CCC” value with anterior capsule [7] (0.25 mg/ml into anterior chamber, immediately irrigated, white mature cataract) is “clearly visible”. Moreover, the “corneal endothelial cell loss” value in the series with anterior capsule [7] (after 2 months) was 0.8%. Moreover, the “visual acuity after surgery” value in the series with anterior capsule [7] (improved from light perception (LP)) is 20/20. In addition, the “acute toxicity (corneal edema, severe inflammation or elevated intraocular pressure)” value in the series with anterior capsule [7] (the following day) is recorded as “no acute toxicity”. For the same molecule, in the series with retina [8], the “infiltration of inflammatory cells (light microscopy)” value was “no infiltration of inflammatory cells was observed” and the “toxic effects such as corneal edema, severe retinal edema, or endophthalmitis (surgical microscopy)” value is reported as “no toxic effects”. In series [9] (BBG 0.01 mg/ml in OPEGUARD-MA), this molecule gave an Osmolarity of 298 mOsm/KgH20 and a pH of 7.41. In [9] (BBG 0.1 mg/ml in OPEGUARD-MA), the Osmolarity is listed as 298 mOsm/KgH20 and the pH is given as 7.41. Besides, in series [9] (BBG 0.25 mg/ml in OPEGUARD-MA), the “osmolarity of prepared BBG solution” value turned out to be 289 mOsm and the “pH of prepared BBG solution” value is 7.44. Besides, in series [9] (BBG 1.0 mg/ml in OPEGUARD-MA), the Osmolarity was 300 mOsm/KgH20 and the pH is 7.42. In [9] (setting [13]), this molecule had an Osmolarity of 310 mOsm/KgH20 and a pH of 7.41. The “apoptotic cell death (TUNEL) in corneal stromal cells, endothelium, ciliary body and lens cells” value in the series with corneal endothelium was “no TUNEL staining was observed”. In addition, the “concentration providing satisfactory staining of the anterior capsule” value in the series with anterior capsule [10] worked out at 0.25 mg/mL. Further, the capsular staining entry in the series on anterior capsule [10] (0.1 mg/ml and 0.01 mg/ml) was “obscure”. In addition, the “staining of the anterior capsule” value with anterior capsule [10] (0.25 mg/ml to 1 mg/ml, staining deepened with concentration) is “stained the anterior capsule homogenously”. Further, the “minimal concentration needed to produce high quality staining with clear visualization” value in the series with anterior capsule [10] (pig eye anterior capsule) was 0.25 mg/mL.
